# Source: paper PMC9090415, “Discovery of small molecule inhibitors of Plasmodium falciparum apicoplast DNA polymerase” (Journal of Enzyme Inhibition and Medicinal Chemistry, 2022)
# Target: P. falciparum apicoplast DNA polymerase (Pf-apPOL) (Plasmodium falciparum, UniProt Q8ILY1)
# Assay: Fluorescence-based high-throughput DNA polymerase assay (molecular beacon), primary screen and dose-response;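 for % inhibition ApPOL 90': test concentration in µM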;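 for % inhibition apPOL 180': test concentration in µM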
# Assay type: biochemical
# Procedure, shortened: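 Single-point screening used 10 µM compound with 20 nM polymerase, 20 nM hairpin substrate and 6 µM dNTPs for 90 min at 25 °C. Confirmatory titrations (2.5–80 µM) followed fluorescence at three times, and IC50 was derived from a fit including a cooperativity term n.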
# Sequence of P. falciparum apicoplast DNA polymerase (Pf-apPOL) (Q8ILY1 entry or part of it): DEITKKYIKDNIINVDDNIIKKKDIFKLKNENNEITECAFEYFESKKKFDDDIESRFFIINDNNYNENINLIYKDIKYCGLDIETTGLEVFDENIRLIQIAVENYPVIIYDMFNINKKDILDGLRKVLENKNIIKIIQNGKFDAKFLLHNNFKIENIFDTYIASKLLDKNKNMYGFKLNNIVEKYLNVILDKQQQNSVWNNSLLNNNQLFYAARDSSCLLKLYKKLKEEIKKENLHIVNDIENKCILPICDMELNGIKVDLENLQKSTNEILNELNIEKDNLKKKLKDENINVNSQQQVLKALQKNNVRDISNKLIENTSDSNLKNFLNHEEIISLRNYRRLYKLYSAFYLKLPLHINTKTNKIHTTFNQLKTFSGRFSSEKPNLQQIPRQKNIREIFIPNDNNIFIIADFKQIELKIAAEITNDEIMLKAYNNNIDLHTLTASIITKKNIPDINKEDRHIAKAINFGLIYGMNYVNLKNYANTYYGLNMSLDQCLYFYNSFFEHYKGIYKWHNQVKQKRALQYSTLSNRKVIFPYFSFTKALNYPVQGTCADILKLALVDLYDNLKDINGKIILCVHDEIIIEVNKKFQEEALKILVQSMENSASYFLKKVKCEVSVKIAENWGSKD
smiles,measurement,setting,value
"C=CC1=C(C)c2cc3[nH]c(cc4nc(cc5[nH]c(cc1n2)c(C)c5CCC(=O)O)C(CCC(=O)O)=C4C)c(C)c3C=C [Molecule 91, C=CC1=C(C)/C/2=C/c3[nH]c(c(c3C=C)C)/C=C/3\N=C(/C=c/4\[nH]/c(=C\C1=N2)/c(C)c4CCC(=O)O)C(=C3C)CCC(=O)O]",DNA Pol,"'DNA Pol' of the 186 hits list (screen value); 90 min, 10 µM",102
same,% inhibition Apo pol 10',DRC-1; 10'; conc 2.5,61.8295%
same,% inhibition Apo pol 10',DRC-1; 10'; conc 5,90.2247%
same,% inhibition Apo pol 10',DRC-1; 10'; conc 10,94.5739%
same,% inhibition Apo pol 10',DRC-1; 10'; conc 20,93.6963%
same,% inhibition Apo pol 10',DRC-1; 10'; conc 40,92.3128%
same,% inhibition Apo pol 10',DRC-1; 10'; conc 80,90.9627%
same,% inhibition Apol 90',DRC-1; 90'; conc 2.5,48.9007%
same,% inhibition Apol 90',DRC-1; 90'; conc 5,79.3077%
same,% inhibition Apol 90',DRC-1; 90'; conc 10,94.695%
same,% inhibition Apol 90',DRC-1; 90'; conc 20,95.5429%
same,% inhibition Apol 90',DRC-1; 90'; conc 40,94.7622%
same,% inhibition Apol 90',DRC-1; 90'; conc 80,94.048%
same,% inhibition apPOL 180',DRC-1; 180'; conc 2.5,35.65%
same,% inhibition apPOL 180',DRC-1; 180'; conc 5,71.3476%
same,% inhibition apPOL 180',DRC-1; 180'; conc 10,94.4178%
same,% inhibition apPOL 180',DRC-1; 180'; conc 20,96.2534%
same,% inhibition apPOL 180',DRC-1; 180'; conc 40,95.7686%
same,% inhibition apPOL 180',DRC-1; 180'; conc 80,95.2166%
same,% inhibition Apo pol 5',DRC-2; 5'; conc 2.5,48%
same,% inhibition Apo pol 5',DRC-2; 5'; conc 5,50%
same,% inhibition Apo pol 5',DRC-2; 5'; conc 10,53%
same,% inhibition Apo pol 5',DRC-2; 5'; conc 20,49%
same,% inhibition Apo pol 5',DRC-2; 5'; conc 40,49%
same,% inhibition Apo pol 5',DRC-2; 5'; conc 80,48%
same,% inhibition Apo pol 5',DRC-2; 5'; concentration 2.5,48%
same,% inhibition Apo pol 5',DRC-2; 5'; concentration 20,49%
same,% inhibition Apo pol 5',DRC-2; 5'; concentration 40,49%
same,% inhibition Apo pol 5',DRC-2; 5'; concentration 80,48%
same,% inhibition Apol 40',DRC-2; 40'; conc 2.5,44%
same,% inhibition Apol 40',DRC-2; 40'; conc 5,57%
same,% inhibition Apol 40',DRC-2; 40'; conc 10,70%
same,% inhibition Apol 40',DRC-2; 40'; conc 20,70%
same,% inhibition Apol 40',DRC-2; 40'; conc 40,69%
same,% inhibition Apol 40',DRC-2; 40'; conc 80,69%
same,% inhibition Apol 40',DRC-2; 40'; concentration 10,70%
same,% inhibition Apol 40',DRC-2; 40'; concentration 20,70%
same,% inhibition Apol 40',DRC-2; 40'; concentration 40,69%
same,% inhibition Apol 40',DRC-2; 40'; concentration 80,69%
same,% inhibition ApPOL 90',DRC-2; 90'; conc 2.5,40%
same,% inhibition ApPOL 90',DRC-2; 90'; conc 5,56%
same,% inhibition ApPOL 90',DRC-2; 90'; conc 10,74%
same,% inhibition ApPOL 90',DRC-2; 90'; conc 20,76%
same,% inhibition ApPOL 90',DRC-2; 90'; conc 40,75%
same,% inhibition ApPOL 90',DRC-2; 90'; conc 80,75%
same,% inhibition ApPOL 90',DRC-2; 90'; concentration 20,76%
same,% inhibition ApPOL 90',DRC-2; 90'; concentration 40,75%
same,% inhibition ApPOL 90',DRC-2; 90'; concentration 80,75%
same,% inhibition apPOL 180',DRC-2; 180'; conc 2.5,25%
same,% inhibition apPOL 180',DRC-2; 180'; conc 5,49%
same,% inhibition apPOL 180',DRC-2; 180'; conc 10,76%
same,% inhibition apPOL 180',DRC-2; 180'; conc 20,80%
same,% inhibition apPOL 180',DRC-2; 180'; conc 40,80%
same,% inhibition apPOL 180',DRC-2; 180'; conc 80,79%
same,% inhibition apPOL 180',DRC-2; 180'; concentration 5,49%
same,% inhibition apPOL 180',DRC-2; 180'; concentration 10,76%
same,% inhibition apPOL 180',DRC-2; 180'; concentration 20,80%
same,% inhibition apPOL 180',DRC-2; 180'; concentration 40,80%
same,DNA Pol,"primary screen value, ""DNA Pol""; 90 min, 10 µM",102
"CCOc1ccc(/C=C2\N=C(c3cc([N+](=O)[O-])cc([N+](=O)[O-])c3)OC2=O)cc1 [Molecule 97, CCOc1ccc(cc1)/C=C/1\N=C(OC1=O)c1cc(cc(c1)N(=O)=O)N(=O)=O]",DNA Pol,"'DNA Pol' of the 186 hits list (primary screen result); unit not given; 90 min, 10 µM",62
same,% inhibition Apo pol 10',DRC-1; 10'; concentration 2.5,32.0109%
same,% inhibition Apo pol 10',DRC-1; 10'; concentration 5,55.2757%
same,% inhibition Apo pol 10',DRC-1; 10'; concentration 10,83.2599%
same,% inhibition Apo pol 10',DRC-1; 10'; concentration 20,91.8438%
same,% inhibition Apo pol 10',DRC-1; 10'; concentration 40,94.8761%
same,% inhibition Apo pol 10',DRC-1; 10'; concentration 80,92.0577%
same,% inhibition Apol 90',DRC-1; 90'; concentration 2.5,15.0386%
same,% inhibition Apol 90',DRC-1; 90'; concentration 5,31.639%
same,% inhibition Apol 90',DRC-1; 90'; concentration 10,61.0945%
same,% inhibition Apol 90',DRC-1; 90'; concentration 20,80.2984%
same,% inhibition Apol 90',DRC-1; 90'; concentration 40,94.8535%
same,% inhibition Apol 90',DRC-1; 90'; concentration 80,94.5175%
same,% inhibition apPOL 180',DRC-1; 180'; concentration 2.5,6.537%
same,% inhibition apPOL 180',DRC-1; 180'; concentration 5,16.2109%
same,% inhibition apPOL 180',DRC-1; 180'; concentration 10,41.6227%
same,% inhibition apPOL 180',DRC-1; 180'; concentration 20,66.1189%
same,% inhibition apPOL 180',DRC-1; 180'; concentration 40,93.496%
same,% inhibition apPOL 180',DRC-1; 180'; concentration 80,95.7221%
same,% inhibition Apol 40',"DRC-2, 40', concentration 20 (unit not given)",68%
same,% inhibition Apol 40',"DRC-2, 40', concentration 40 (unit not given)",76%
same,% inhibition Apol 40',"DRC-2, 40', concentration 80 (unit not given)",76%
same,% inhibition ApPOL 90',"DRC-2, 90', concentration 20 (unit not given)",68%
same,% inhibition apPOL 180',"DRC-2, 180', concentration 20 (unit not given)",60%
same,% inhibition Apo pol 5',DRC-2; 5'; concentration 2.5,20%
same,% inhibition Apo pol 5',DRC-2; 5'; concentration 5,43%
same,% inhibition Apo pol 5',DRC-2; 5'; concentration 10,52%
same,% inhibition Apo pol 5',DRC-2; 5'; concentration 20,59%
same,% inhibition Apo pol 5',DRC-2; 5'; concentration 40,61%
same,% inhibition Apo pol 5',DRC-2; 5'; concentration 80,60%
same,% inhibition Apo pol 5',DRC-2; 5'; concentration 80 (unit not given),60%
same,% inhibition Apol 40',DRC-2; 40'; concentration 2.5,14%
same,% inhibition Apol 40',DRC-2; 40'; concentration 5,38%
same,% inhibition Apol 40',DRC-2; 40'; concentration 10,47%
same,% inhibition Apol 40',DRC-2; 40'; concentration 20,68%
same,% inhibition Apol 40',DRC-2; 40'; concentration 40,76%
same,% inhibition Apol 40',DRC-2; 40'; concentration 80,76%
same,% inhibition ApPOL 90',DRC-2; 90'; concentration 2.5,9%
same,% inhibition ApPOL 90',DRC-2; 90'; concentration 5,33%
same,% inhibition ApPOL 90',DRC-2; 90'; concentration 10,42%
same,% inhibition ApPOL 90',DRC-2; 90'; concentration 20,68%
same,% inhibition ApPOL 90',DRC-2; 90'; concentration 40,79%
same,% inhibition ApPOL 90',DRC-2; 90'; concentration 80,80%
same,% inhibition apPOL 180',DRC-2; 180'; concentration 2.5,2.15%
same,% inhibition apPOL 180',DRC-2; 180'; concentration 5,19%
same,% inhibition apPOL 180',DRC-2; 180'; concentration 10,28%
same,% inhibition apPOL 180',DRC-2; 180'; concentration 20,60%
same,% inhibition apPOL 180',DRC-2; 180'; concentration 40,81%
same,% inhibition apPOL 180',DRC-2; 180'; concentration 80,84%
same,DNA Pol,"primary screen value of the library well; unit not given; 90 min, 10 µM",62
COc1ccc(-c2c(C(F)(F)F)nn3c(=O)cc(-c4cccc([N+](=O)[O-])c4)[nH]c23)cc1 [Molecule 16],IC50,"supplemental file 2, sheet IC50 nontoxic compounds; Pf-apPOL",9.3 µM
"O=C(O)CC1SC(c2ccc3c(c2)OCO3)=NC1=O (stereo not drawn) [Molecule 69, OC(=O)CC1SC(=NC1=O)c1ccc2c(c1)OCO2]",DNA Pol,"'DNA Pol'; screening value, unit not given; 90 min, 10 µM",73
same,% inhibition Apo pol 10',DRC-1; 10'; concentration 2.5,9.093%
same,% inhibition Apo pol 10',DRC-1; 10'; concentration 5,10.6697%
same,% inhibition Apo pol 10',DRC-1; 10'; concentration 10,24.5481%
same,% inhibition Apo pol 10',DRC-1; 10'; concentration 20,37.0336%
same,% inhibition Apo pol 10',DRC-1; 10'; concentration 40,59.8933%
same,% inhibition Apo pol 10',DRC-1; 10'; concentration 80,73.2432%
same,% inhibition Apol 90',DRC-1; 90'; concentration 2.5,0.8612%
same,% inhibition Apol 90',DRC-1; 90'; concentration 5,2.259%
same,% inhibition Apol 90',DRC-1; 90'; concentration 10,10.3106%
same,% inhibition Apol 90',DRC-1; 90'; concentration 20,18.6533%
same,% inhibition Apol 90',DRC-1; 90'; concentration 40,43.3337%
same,% inhibition Apol 90',DRC-1; 90'; concentration 80,58.9692%
same,% inhibition apPOL 180',DRC-1; 180'; concentration 2.5,-4.62%
same,% inhibition apPOL 180',DRC-1; 180'; concentration 5,-4.006%
same,% inhibition apPOL 180',DRC-1; 180'; concentration 10,2.363%
same,% inhibition apPOL 180',DRC-1; 180'; concentration 20,9.6301%
same,% inhibition apPOL 180',DRC-1; 180'; concentration 40,35.5256%
same,% inhibition apPOL 180',DRC-1; 180'; concentration 80,52.4762%
same,% inhibition Apo pol 5',"DRC-2, 5', concentration 2.5",14%
same,% inhibition Apo pol 5',"DRC-2, 5', concentration 5",9%
same,% inhibition Apo pol 5',"DRC-2, 5', concentration 10",20%
same,% inhibition Apo pol 5',"DRC-2, 5', concentration 20",29%
same,% inhibition Apo pol 5',"DRC-2, 5', concentration 40",41%
same,% inhibition Apo pol 5',"DRC-2, 5', concentration 80",49%
same,% inhibition Apol 40',"DRC-2, 40', concentration 2.5",9%
same,% inhibition Apol 40',"DRC-2, 40', concentration 5",7%
same,% inhibition Apol 40',"DRC-2, 40', concentration 10",16%
same,% inhibition Apol 40',"DRC-2, 40', concentration 20",23%
same,% inhibition Apol 40',"DRC-2, 40', concentration 40",37%
same,% inhibition Apol 40',"DRC-2, 40', concentration 80",51%
same,% inhibition ApPOL 90',"DRC-2, 90', concentration 2.5",5.65%
same,% inhibition ApPOL 90',"DRC-2, 90', concentration 5",4%
same,% inhibition ApPOL 90',"DRC-2, 90', concentration 10",10%
same,% inhibition ApPOL 90',"DRC-2, 90', concentration 20",16%
same,% inhibition ApPOL 90',"DRC-2, 90', concentration 40",33%
same,% inhibition ApPOL 90',"DRC-2, 90', concentration 80",50%
same,% inhibition apPOL 180',"DRC-2, 180', concentration 2.5",-0.895%
same,% inhibition apPOL 180',"DRC-2, 180', concentration 5",-1.56%
same,% inhibition apPOL 180',"DRC-2, 180', concentration 10",3%
same,% inhibition apPOL 180',"DRC-2, 180', concentration 20",7%
same,% inhibition apPOL 180',"DRC-2, 180', concentration 40",23%
same,% inhibition apPOL 180',"DRC-2, 180', concentration 80",43%
same,% inhibition Apol 40',conc 2.5 (unit not given); 40'; DRC-2,9%
same,% inhibition Apo pol 5',conc 5 (unit not given); 5'; DRC-2,9%
same,% inhibition Apol 40',conc 5 (unit not given); 40'; DRC-2,7%
same,% inhibition Apol 40',conc 10 (unit not given); 40'; DRC-2,16%
same,% inhibition Apol 40',conc 20 (unit not given); 40'; DRC-2,23%
same,% inhibition ApPOL 90',conc 20 (unit not given); 90'; DRC-2,16%
same,% inhibition apPOL 180',conc 20 (unit not given); 180'; DRC-2,7%
same,% inhibition apPOL 180',conc 40 (unit not given); 180'; DRC-2,23%
same,DNA Pol,"primary screen hit value, DNA Pol (186 hits); 90 min, 10 µM",73
